Values after ≈ are worked out from the molar mass of the structure shown. *1 amine or outer side, *2 acyl side, *3 side chain or, on linkers, in order; H or OH if unused. Where a SMILES comes first, the peptide text is derived from it. Bridges are numbered along the chain shown (N, C = ends). The star is where a group is joined. C20 diacid = O=C(O)CCCCCCCCCCCCCCCCCCC(=O)*; γGlu = O=C(O)[C@H](CCC(=O)[*:2])N[*:1]
Assays:
[1] = molecular target: Insulin (Homo sapiens) (UniProt P01308); test: Effect on insulin (unknown origin) amyloid fibril formation assessed as lag time in glycyl-glycine buffer at pH 4 measured after 45 hrs by thioflavin-T fluorescence assay
Insulin (Homo sapiens), sequence (P01308 whole entry): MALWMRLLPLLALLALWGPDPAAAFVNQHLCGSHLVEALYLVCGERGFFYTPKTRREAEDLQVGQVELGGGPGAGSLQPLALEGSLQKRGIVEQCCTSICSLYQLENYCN

[2] = molecular target: Insulin (Homo sapiens) (UniProt P01308); test: Effect on insulin (unknown origin) amyloid fibril formation assessed as peptide recovery in glycyl-glycine buffer at pH 4 measured after 45 hrs by thioflavin-T fluorescence assay relative to control; design: concentration or dose not given beside the values
[3] = species: Homo sapiens; test: Ratio of IC50 for displacement of [125I]-calcitonin from human calcitonin receptor expressed in tk-ts 13 cells to IC50 for displacement of [125I]-amylin from human AMY3R (CTR+RAMP3) expressed in BHK-13 cells; format: cell-based
[4] = species: Rattus norvegicus; test: Ratio of IC50 for displacement of [125I]-calcitonin from rat calcitonin receptor expressed in tk-ts 13 cells to IC50 for displacement of [125I]-amylin from rat AMY3R (CTR+RAMP3) expressed in BHK-13 cells; format: cell-based
[5] = species: Homo sapiens; test: Ratio of EC50 for human calcitonin receptor expressed in BHK570 cells to EC50 for human AMY3R (CT+RAMP3) expressed in Hollex1 cells; format: cell-based
[6] = tested on: Rattus norvegicus; test: Reduction in food intake in Sprague-Dawley rat at 3 nmol/kg, sc administered as single dose measured after 24 to 48 hrs relative to control; format: functional; design: scale not given: the % may be the effect or the level left; conditions: time 24-48 hrs
[7] = tested on: Rattus norvegicus; test: Reduction in food intake in Sprague-Dawley rat at 3 nmol/kg, sc administered as single dose measured upto 24 hrs relative to control; format: functional; design: scale not given: the % may be the effect or the level left; conditions: time hrs <=24
[8] = Agonist activity at human calcitonin receptor expressed in BHK570 cells assessed as increase in intracellular cAMP concentration incubated for 3 hrs in absence of albumin by CRE luciferase reporter gene assay; format: cell-based; conditions: BHK570, 3 h
[9] = Displacement of [125I]-calcitonin from rat calcitonin receptor expressed in tk-ts 13 cells measured after 120 mins by scintillation proximity assay; format: cell-based; conditions: tk-ts13
[10] = Solubility of the compound in bis-tris propane at pH 7 by UPLC analysis; format: physicochemical; conditions: bis-tris propane buffer
[11] = Displacement of [125I]-calcitonin from human calcitonin receptor expressed in tk-ts 13 cells measured after 120 mins by scintillation proximity assay; format: cell-based; conditions: tk-ts13
[12] = Solubility of the compound in bis-tris propane at pH 6.5 by UPLC analysis; format: physicochemical; conditions: bis-tris propane buffer
[13] = Solubility of the compound in lactate at pH 4 by UPLC analysis; format: physicochemical; conditions: lactate buffer
[14] = Solubility of the compound in lactate at pH 3 by UPLC analysis; format: physicochemical; conditions: lactate buffer
[15] = Agonist activity at human AMY3R (CT+RAMP3) expressed in Hollex1 cells incubated for 3 hrs by luminescence assay; format: cell-based; conditions: Hollex1, 3 h
[16] = Displacement of [125I]-amylin from rat AMY3R (CTR+RAMP3) expressed in BHK-13 cells measured after 120 mins by scintillation proximity assay; format: cell-based
[17] = Solubility of the compound in lactate at pH 5 by UPLC analysis; format: physicochemical; conditions: lactate buffer
[18] = Solubility of the compound in bis-tris propane at pH 6 by UPLC analysis; format: physicochemical; conditions: bis-tris propane buffer
[19] = Displacement of [125I]-amylin from human AMY3R (CTR+RAMP3) expressed in BHK-13 cells measured after 120 mins by scintillation proximity assay; format: cell-based
[20] = Solubility of the compound in bis-tris propane at pH 7.5 by UPLC analysis; format: physicochemical; conditions: bis-tris propane buffer
[21] = Agonist activity at rat calcitonin receptor expressed in BHK-13 cells assessed as increase in intracellular cAMP concentration incubated for 25 mins by CRE luciferase reporter gene assay; format: cell-based; conditions: BHK-13, 25 min
[22] = Agonist activity at rat AMY3R (CT+RAMP3) expressed in tk-ts13 cells assessed as increase in intracellular cAMP level incuabted for 25 mins by CRE luciferase reporter gene assay; format: cell-based; conditions: tk-ts13, 25 min
[23] = Solubility of the compound in bis-tris propane at pH 8 by UPLC analysis; format: physicochemical; conditions: bis-tris propane buffer
[24] = species: Rattus norvegicus; test: Ratio of EC50 for rat calcitonin receptor expressed in BHK-13 cells to EC50 for rat AMY3R (CT+RAMP3) expressed in tk-ts13 cells; format: cell-based

| Compound | TIME [1] | Activity [2] | Ratio IC50 [3] | Ratio IC50 [4] | Ratio EC50 [5] | Activity [6] | Activity [7] | EC50 [8] | IC50 [9] | IC50 [11] | solubility [13] | solubility [14] | EC50 [15] | IC50 [16] | solubility [17] | IC50 [19] | EC50 [21] | EC50 [22] | further results |
| --- | --- | --- | --- | --- | --- | --- | --- | --- | --- | --- | --- | --- | --- | --- | --- | --- | --- | --- | --- |
| CC[C@H](C)[C@H](NC(=O)[C@@H](CCC(=O)O)NC(=O)CNC(=O)[C@H](Cc1ccccc1)NC(=O)[C@H](CC(N)=O)NC(=O)[C@H](CC(N)=O)NC(=O)[C@H](CO)NC(=O)[C@H](CO)NC(=O)[C@H](CCCNC(=N)N)NC(=O)[C@H](Cc1cnc[nH]1)NC(=O)[C@H](CC(C)C)NC(=O)[C@H](Cc1ccccc1)NC(=O)[C@H](CCC(=O)O)NC(=O)[C@H](C)NC(=O)[C@H](CC(C)C)NC(=O)[C@H](CCCNC(=N)N)NC(=O)[C@H](CCC(N)=O)NC(=O)[C@@H](NC(=O)[C@H](C)NC(=O)[C@@H]1CSSC[C@H](NC(=O)[C@H](Cc2cnc[nH]2)NC(=O)CC[C@H](NC(=O)CCCCCCCCCCCCCCCCCCC(=O)O)C(=O)O)C(=O)N[C@@H](CC(N)=O)C(=O)N[C@@H]([C@@H](C)O)C(=O)N[C@@H](C)C(=O)N[C@@H]([C@@H](C)O)C(=O)N1)[C@H](C)O)C(=O)N[C@@H](CC(C)C)C(=O)N[C@@H](CO)C(=O)N[C@@H](CCCNC(=N)N)C(=O)N[C@H](C(=O)N[C@@H](CC(N)=O)C(=O)N[C@H](C(=O)NCC(=O)N[C@@H](CO)C(=O)N[C@@H](CC(N)=O)C(=O)N[C@H](C(=O)N[C@@H](Cc1ccc(O)cc1)C(N)=O)[C@@H](C)O)C(C)C)[C@@H](C)O | 0 h | 0% | 2 | 3 | 2 | – | – | – | – | – | – | – | – | – | – | – | – | – | – |
| CC[C@H](C)[C@H](NC(=O)[C@@H]1CCCN1C(=O)CNC(=O)[C@H](Cc1ccccc1)NC(=O)[C@H](CC(N)=O)NC(=O)[C@H](CC(N)=O)NC(=O)[C@H](CO)NC(=O)[C@H](CO)NC(=O)[C@H](CCCNC(=N)N)NC(=O)[C@@H](NC(=O)[C@H](CC(C)C)NC(=O)[C@H](Cc1ccccc1)NC(=O)[C@H](CCC(=O)O)NC(=O)[C@H](C)NC(=O)[C@H](CC(C)C)NC(=O)[C@H](CCCNC(=N)N)NC(=O)[C@H](CCC(N)=O)NC(=O)[C@@H](NC(=O)[C@H](C)NC(=O)[C@@H]1CSSC[C@H](NC(=O)[C@H](Cc2cnc[nH]2)NC(=O)CC[C@H](NC(=O)CCCCCCCCCCCCCCCCCCC(=O)O)C(=O)O)C(=O)N[C@@H](CC(N)=O)C(=O)N[C@@H]([C@@H](C)O)C(=O)N[C@@H](C)C(=O)N[C@@H]([C@@H](C)O)C(=O)N1)[C@@H](C)O)C(C)C)C(=O)N[C@@H](CC(C)C)C(=O)N1CCC[C@H]1C(=O)N1CCC[C@H]1C(=O)N[C@H](C(=O)N[C@@H](CC(N)=O)C(=O)N[C@H](C(=O)NCC(=O)N[C@@H](CO)C(=O)N[C@@H](CC(N)=O)C(=O)N[C@H](C(=O)N[C@@H](Cc1ccc(O)cc1)C(N)=O)[C@@H](C)O)C(C)C)[C@@H](C)O ({C20 diacid-γGlu}-HCNTATCATQRLAEFLVRSSNNFGPILPPTNVGSNTY-NH2; disulfide 2-7) | 5 h | 2% | 7 | 30 | 2 | 59% | 56% | 0.125 nM | 0.807 nM | 3.25 nM | 200 µM (≈ 889 µg/mL) | 200 µM (≈ 889 µg/mL) | 0.083 nM | 0.027 nM | 10 µM (≈ 44.5 µg/mL) | 0.499 nM | – | – | solubility [10]: 10 µM (≈ 44.5 µg/mL); solubility [12]: 1 µM (≈ 4.45 µg/mL); solubility [18]: 1 µM (≈ 4.45 µg/mL) |
| CC[C@H](C)[C@H](NC(=O)[C@@H]1CCCN1C(=O)CNC(=O)[C@H](Cc1ccccc1)NC(=O)[C@H](CC(N)=O)NC(=O)[C@H](CC(N)=O)NC(=O)[C@H](CO)NC(=O)[C@H](CO)NC(=O)[C@H](Cc1cnc[nH]1)NC(=O)[C@H](Cc1cnc[nH]1)NC(=O)[C@H](CC(C)C)NC(=O)[C@H](Cc1ccccc1)NC(=O)[C@H](CCC(=O)O)NC(=O)[C@H](C)NC(=O)[C@H](CC(C)C)NC(=O)[C@H](CCCNC(=N)N)NC(=O)[C@H](CCC(N)=O)NC(=O)[C@@H](NC(=O)[C@H](C)NC(=O)[C@@H]1CSSC[C@H](NC(=O)[C@H](Cc2cnc[nH]2)NC(=O)[C@H](Cc2cnc[nH]2)NC(=O)CC[C@H](NC(=O)CCCCCCCCCCCCCCCCCCC(=O)O)C(=O)O)C(=O)N[C@@H](CC(N)=O)C(=O)N[C@@H]([C@@H](C)O)C(=O)N[C@@H](C)C(=O)N[C@@H]([C@@H](C)O)C(=O)N1)[C@@H](C)O)C(=O)N[C@@H](CC(C)C)C(=O)N1CCC[C@H]1C(=O)N1CCC[C@H]1C(=O)N[C@H](C(=O)N[C@@H](CC(N)=O)C(=O)N[C@H](C(=O)NCC(=O)N[C@@H](CO)C(=O)N[C@@H](CC(N)=O)C(=O)N[C@H](C(=O)N[C@@H](Cc1ccc(O)cc1)C(N)=O)[C@@H](C)O)C(C)C)[C@@H](C)O ({C20 diacid-γGlu}-HHCNTATCATQRLAEFLHHSSNNFGPILPPTNVGSNTY-NH2; disulfide 3-8) | 30 h | 9% | 0.3 | 5 | 2 | 22% | 40% | 0.165 nM | 0.221 nM | 0.111 nM | 200 µM (≈ 920 µg/mL) | 200 µM (≈ 920 µg/mL) | 0.102 nM | 0.048 nM | 200 µM (≈ 920 µg/mL) | 0.359 nM | 0.221 nM | 0.147 nM | solubility [20]: 200 µM (≈ 920 µg/mL); solubility [23]: 200 µM (≈ 920 µg/mL); Ratio EC50 [24]: 2 |
| CC(C)C[C@H](NC(=O)[C@H](CCCCN)NC(=O)CNC(=O)[C@H](CC(C)C)NC(=O)[C@@H](NC(=O)[C@@H]1CSSC[C@H](N)C(=O)N[C@@H](CO)C(=O)N[C@@H](CC(N)=O)C(=O)N[C@@H](CC(C)C)C(=O)N[C@@H](CO)C(=O)N[C@@H]([C@@H](C)O)C(=O)N1)C(C)C)C(=O)N[C@@H](CO)C(=O)N[C@@H](CCC(N)=O)C(=O)N[C@@H](CCC(=O)O)C(=O)N[C@@H](CC(C)C)C(=O)N[C@@H](Cc1c[nH]cn1)C(=O)N[C@@H](CCCCN)C(=O)N[C@@H](CC(C)C)C(=O)N[C@@H](CCC(N)=O)C(=O)N[C@H](C(=O)N[C@@H](Cc1ccc(O)cc1)C(=O)N1CCC[C@H]1C(=O)N[C@@H](CCCNC(=N)N)C(=O)N[C@H](C(=O)N[C@@H](CC(N)=O)C(=O)N[C@H](C(=O)NCC(=O)N[C@@H](CO)C(=O)NCC(=O)N[C@H](C(=O)N1CCC[C@H]1C(N)=O)[C@@H](C)O)[C@@H](C)O)[C@@H](C)O)[C@@H](C)O [CALCITONIN SALMON] | – | – | 1 | 1 | 2 | – | – | 0.003 nM | 0.03 nM | 0.066 nM | – | – | 0.002 nM | 0.028 nM | – | – | 0.0001 nM | 0.001 nM | – |
